# Source: patent US7563621B2, “Absorbing organic reagents into diagnostic test devices by formation of amine salt complexes” (Siemens Healhcare Diagnostics Inc, priority 2003, dated 2009)
# “And” between values parts separate entries of the source, which are not always exact repeats. Equal values may be shown once. Where a name gives a salt, the structure may show the parent alone.
# Key:
# [1] = Butanol/water partitioning of pyrogallol red dye salts (Example 3); assay type: physicochemical; settings: 276 nm; for Absorbance of Dye Salt in Butanol: butanol layer; for Absorbance of Dye Salt in Water: water layer
# Protocol: Extractions were then performed in Mixxor extractors.
# human IgG [2] = assay: Automated protein assay with pyrogallol red salts, 54 μM (Example 5); settings: IgG 25 mg/dL, 10 minutes, averaged data
# Protocol: (§1) The dilutor was programmed for reactions of 180 μL reagent+40 μL sample. […] The samples were phosphate buffered saline (blank), human serum albumin (HSA) 25 mg/dL, and other proteins (i.e., human IgG, […], and Lambda Light Chain) at 25 mg/dL. Absorbance rate data were collected on a Biotek, Powerwave X Microplate Absorbance reader using BioTek “KC Jr” software to determine the relative detection of the different proteins (i.e., HSA, human IgG, […], and Lambda Light Chain) using salts of pyrogallol red. Two sets of replicates of the different proteins were run. […] The protein response was determined by subtracting the phosphate buffered saline sample reaction result from the protein reaction result.
# Tamm-Horsfall [3] = target: T1, Tamm-Horsfall (Homo sapiens, UniProt P07911); assay: as above; settings: 10 minutes; for 600 nm Absorbance Level, salt with Protein / 900 nm Absorbance Background Level, salt with Protein / Reaction Absorbance at 600 nm − Absorbance at 900 nm (net protein response, protein minus non-protein sample): Tamm-Horsfall 25 mg/dL; for 600 nm Absorbance Level, salt with Protein / 900 nm Absorbance Background Level, salt with Protein / 600 nm Absorbance Level, salt in Phosphate Buffered Saline (No Protein) / 900 nm Absorbance Background Level, salt in Phosphate Buffered Saline (No Protein): 37° C, replicates #1 and #2; for Reaction Absorbance at 600 nm − Absorbance at 900 nm (net protein response, protein minus non-protein sample): averaged data; for 600 nm Absorbance Level, salt in Phosphate Buffered Saline (No Protein) / 900 nm Absorbance Background Level, salt in Phosphate Buffered Saline (No Protein): Tamm-Horsfall
# Protocol: as §1
# Lambda Light Chain [4] = assay: as above; settings: Lambda Light Chain 25 mg/dL, 10 minutes, averaged data
# Protocol: as §1
# [5] = target: T2, human serum albumin (HSA) (Homo sapiens, UniProt P02768); assay: as above; settings: 10 minutes; for 600 nm Absorbance Level, salt with Protein / 900 nm Absorbance Background Level, salt with Protein / Reaction Absorbance at 600 nm − Absorbance at 900 nm (net protein response, protein minus non-protein sample): HSA 25 mg/dL; for 600 nm Absorbance Level, salt with Protein / 900 nm Absorbance Background Level, salt with Protein / 600 nm Absorbance Level, salt in Phosphate Buffered Saline (No Protein) / 900 nm Absorbance Background Level, salt in Phosphate Buffered Saline (No Protein): 37° C, replicates #1 and #2; for Reaction Absorbance at 600 nm − Absorbance at 900 nm (net protein response, protein minus non-protein sample): averaged data; for 600 nm Absorbance Level, salt in Phosphate Buffered Saline (No Protein) / 900 nm Absorbance Background Level, salt in Phosphate Buffered Saline (No Protein): HSA
# Protocol: as §1
# [6] = target: T2, human serum albumin (HSA); assay: Automated protein assay with pyrogallol red salts, 74 μM (Example 6); settings: HSA 25 mg/dL; 10 minutes, 37° C; 900 nm baseline subtracted; Series #1 and #2
# Protocol: The dilutor was programmed for reactions of 180 μL reagent+40 μL sample. […] The samples were phosphate buffered saline (blank), human serum albumin (HSA) 25 mg/dL, and other proteins (i.e., human IgG, […], and Lambda Light Chain) at 25 mg/dL. Absorbance data were collected on a Biotek, Powerwave X Microplate Absorbance reader using BioTek “KC Jr” software to determine the relative detection of the different proteins (i.e., HSA, human IgG, […], and Lambda Light Chain) using salts of pyrogallol red. Two sets of replicates of the different proteins were run. […] The protein response was determined by subtracting the phosphate buffered saline sample reaction result from the protein reaction result.
# human IgG [7] = assay: as above; settings: Series #1 and #2
# Protocol: (§2) The dilutor was programmed for reactions of 180 μL reagent+40 μL sample. […] The samples were phosphate buffered saline (blank), human serum albumin (HSA) 25 mg/dL, and other proteins (i.e., human IgG, […], and Lambda Light Chain) at 25 mg/dL. Absorbance data were collected on a Biotek, Powerwave X Microplate Absorbance reader using BioTek “KC Jr” software to determine the relative detection of the different proteins (i.e., HSA, human IgG, […], and Lambda Light Chain) using salts of pyrogallol red. Two sets of replicates of the different proteins were run. […] The protein response was determined by subtracting the phosphate buffered saline sample reaction result from the protein reaction result. […] The results for protein equivalence of the non-albumin proteins were expressed as a percentage of the protein colorimetric response to HSA as shown in Table 11 below.
# Tamm-Horsfall [8] = target: T1, Tamm-Horsfall; assay: as above; settings: Series #1 and #2
# Protocol: as §2
# Lambda Light Chain [9] = assay: as above; settings: Series #1 and #2; for Percent Detection as Percentage of HSA Detection: Lambda Light Chain
# Protocol: as §2
# T2 sequence (P02768 25-609): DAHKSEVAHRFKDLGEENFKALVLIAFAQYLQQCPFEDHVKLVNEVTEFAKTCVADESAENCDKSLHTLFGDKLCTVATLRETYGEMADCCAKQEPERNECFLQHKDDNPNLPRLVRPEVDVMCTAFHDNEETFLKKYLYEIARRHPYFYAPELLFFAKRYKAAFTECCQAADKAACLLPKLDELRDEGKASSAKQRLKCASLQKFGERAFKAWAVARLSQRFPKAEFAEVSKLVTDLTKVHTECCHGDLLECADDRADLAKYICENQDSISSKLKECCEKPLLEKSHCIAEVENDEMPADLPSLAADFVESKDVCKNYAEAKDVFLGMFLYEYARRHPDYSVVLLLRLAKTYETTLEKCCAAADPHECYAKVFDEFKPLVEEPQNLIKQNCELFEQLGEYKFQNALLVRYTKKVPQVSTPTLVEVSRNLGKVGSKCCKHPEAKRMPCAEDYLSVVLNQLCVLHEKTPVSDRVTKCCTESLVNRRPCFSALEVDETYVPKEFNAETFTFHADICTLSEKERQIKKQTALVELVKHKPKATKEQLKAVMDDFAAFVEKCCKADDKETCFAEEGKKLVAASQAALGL
smiles,measurement,setting,value
"O=c1ccc2c(-c3ccccc3S(=O)(=O)O)c3ccc(O)c(O)c3oc-2c1O [Sodium Pyrogallol Red Salt, pyrogallol red, reference compound]",Ratio of Butanol Absorbance to Water Absorbance,[1]; Sodium Hydroxide,0.10
same,Absorbance of Dye Salt in Butanol,[1]; Sodium Hydroxide,0.034
same,Absorbance of Dye Salt in Water,[1]; Sodium Hydroxide,0.338
same,"Reaction Absorbance at 600 nm − Absorbance at 900 nm (net protein response, protein minus non-protein sample)",human IgG [2]; listed as Sodium Salt,0.008
same,"600 nm Absorbance Level, salt with Protein",Tamm-Horsfall [3],0.203 and 0.204
same,"900 nm Absorbance Background Level, salt with Protein",Tamm-Horsfall [3],0.036
same,"Reaction Absorbance at 600 nm − Absorbance at 900 nm (net protein response, protein minus non-protein sample)",Tamm-Horsfall [3]; listed as Sodium Salt,0.007
same,"600 nm Absorbance Level, salt in Phosphate Buffered Saline (No Protein)",Tamm-Horsfall [3],0.196 and 0.198
same,"900 nm Absorbance Background Level, salt in Phosphate Buffered Saline (No Protein)",Tamm-Horsfall [3],0.036 and 0.035
same,"Reaction Absorbance at 600 nm − Absorbance at 900 nm (net protein response, protein minus non-protein sample)",Lambda Light Chain [4]; listed as Sodium Salt,0.006
same,"600 nm Absorbance Level, salt with Protein",[5],0.211
same,"900 nm Absorbance Background Level, salt with Protein",[5],0.035
same,"Reaction Absorbance at 600 nm − Absorbance at 900 nm (net protein response, protein minus non-protein sample)",[5]; listed as Sodium Salt,0.015
same,"600 nm Absorbance Level, salt in Phosphate Buffered Saline (No Protein)",[5],0.197 and 0.196
same,"900 nm Absorbance Background Level, salt in Phosphate Buffered Saline (No Protein)",[5],0.035
same,average net absorbance at 600 nm after subtracting PBS sample reaction result,[6],0.0563 and 0.0536
same,average net absorbance at 600 nm after subtracting PBS sample reaction result,"human IgG [7]; IgG 25 mg/dL, 10 minutes, 37° C, 900 nm baseline subtracted",0.0311 and 0.0318
same,Percent Detection as Percentage of HSA Detection,human IgG [7]; IgG,58% and 56%
same,average net absorbance at 600 nm after subtracting PBS sample reaction result,"Tamm-Horsfall [8]; Tamm-Horsfall 25 mg/dL, 10 minutes, 37° C, 900 nm baseline subtracted",0.0141 and 0.0118
same,Percent Detection as Percentage of HSA Detection,Tamm-Horsfall [8]; Tamm-Horsfall,26% and 21%
same,average net absorbance at 600 nm after subtracting PBS sample reaction result,"Lambda Light Chain [9]; Lambda Light Chain 25 mg/dL, 10 minutes, 37° C, 900 nm baseline subtracted",0.0041 and 0.0037
same,Percent Detection as Percentage of HSA Detection,Lambda Light Chain [9],8% and 7%
same,Percent Detection as Percentage of HSA Detection,Lambda Light Chain [9]; listed as sodium,8%
"O=c1ccc2c(-c3ccccc3S(=O)(=O)O)c3ccc(O)c(O)c3oc-2c1O [Trioctylamine Pyrogallol Red Salt, pyrogallol red]",Ratio of Butanol Absorbance to Water Absorbance,[1]; Trioctylamine,3.17
same,Absorbance of Dye Salt in Butanol,[1]; Trioctylamine,0.155
same,Absorbance of Dye Salt in Water,[1]; Trioctylamine,0.049
same,"Reaction Absorbance at 600 nm − Absorbance at 900 nm (net protein response, protein minus non-protein sample)",human IgG [2]; listed as Trioctylamine Salt,−0.011
same,"600 nm Absorbance Level, salt with Protein",Tamm-Horsfall [3],0.454 and 0.45
same,"900 nm Absorbance Background Level, salt with Protein",Tamm-Horsfall [3],0.085 and 0.084
same,"Reaction Absorbance at 600 nm − Absorbance at 900 nm (net protein response, protein minus non-protein sample)",Tamm-Horsfall [3]; listed as Trioctylamine Salt,−0.034
same,"600 nm Absorbance Level, salt in Phosphate Buffered Saline (No Protein)",Tamm-Horsfall [3],0.485 and 0.486
same,"900 nm Absorbance Background Level, salt in Phosphate Buffered Saline (No Protein)",Tamm-Horsfall [3],0.081 and 0.082
same,"Reaction Absorbance at 600 nm − Absorbance at 900 nm (net protein response, protein minus non-protein sample)",Lambda Light Chain [4]; listed as Trioctylamine Salt,−0.042
same,"600 nm Absorbance Level, salt with Protein",[5],0.454 and 0.464
same,"900 nm Absorbance Background Level, salt with Protein",[5],0.087 and 0.088
same,"Reaction Absorbance at 600 nm − Absorbance at 900 nm (net protein response, protein minus non-protein sample)",[5]; listed as Trioctylamine Salt,−0.021
same,"600 nm Absorbance Level, salt in Phosphate Buffered Saline (No Protein)",[5],0.476 and 0.483
same,"900 nm Absorbance Background Level, salt in Phosphate Buffered Saline (No Protein)",[5],0.082 and 0.081
